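Protocol summary: plate cells (96-well), add compound at 5 concentrations, incubate 48 h, interpolate endpoints linearly. At the GI50, growth is halved.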 The source made the active and inactive calls. No stated cut-off is given here; in the data, active = GI50 up to about 1.1 µM and inactive = higher.
Assays:
Assay in all cases: growth of human tumour cells (NCI), 48 h
ACHN = system: ACHN
SNB-78 = system: SNB-78
OVCAR-3 = system: OVCAR-3
U-251 = system: U-251
SK-MEL-5 = system: SK-MEL-5
DLD-1 = system: DLD-1
SF-295 = system: SF-295
M14 = system: M14
NCI-H23 = system: NCI-H23
KM12 = system: KM12
SW-620 = system: SW-620
NCI-H460 = system: NCI-H460
UO-31 = system: UO-31
DMS-114 = system: DMS-114
OVCAR-4 = system: OVCAR-4
K562 = system: K562
MOLT-4 = system: MOLT-4
XF498 = system: XF498
TK-10 = system: TK-10
SK-MEL-2 = system: SK-MEL-2
NCI-H522 = system: NCI-H522
EKVX = system: EKVX
SNB-19 = system: SNB-19
CAKI-1 = system: CAKI-1
A498 = system: A498
786-0 = system: 786-0
OVCAR-5 = system: OVCAR-5
HOP-62 = system: HOP-62
SK-MEL-28 = system: SK-MEL-28
HCT-15 = system: HCT-15
SF-268 = system: SF-268
DMS-273 = system: DMS-273
CCRF-CEM = system: CCRF-CEM
HT-29 = system: HT-29
RXF 393 = system: RXF 393
LXFL 529 = system: LXFL 529
A549 = system: A549
SNB-75 = system: SNB-75
SN12C = system: SN12C
UACC-257 = system: UACC-257
HCT-116 = system: HCT-116
UACC-62 = system: UACC-62
SF-539 = system: SF-539
OVCAR-8 = system: OVCAR-8
NCI-H226 = system: NCI-H226
HL-60 = system: HL-60
M19-MEL = system: M19-MEL
SK-OV-3 = system: SK-OV-3
SR = system: SR
IGROV-1 = system: IGROV-1
Malme-3M = system: Malme-3M
RPMI-8226 = system: RPMI-8226
HCC 2998 = system: HCC 2998
KM-20L2 = system: KM-20L2
COLO 205 = system: COLO 205
HOP-92 = system: HOP-92
MCF7 = system: MCF7
MDA-MB-231 = system: MDA-MB-231
MDA-N = system: MDA-N
PC-3 = system: PC-3
DU-145 = system: DU-145
NCI/ADR-RES = system: NCI/ADR-RES
T47D = system: T47D
MDA-MB-435 = system: MDA-MB-435
LOX IMVI = system: LOX IMVI
BT-549 = system: BT-549
Hs-578T = system: Hs-578T

Measured: GI50

CCOC(=O)C1CCCCN1C(=O)OCc1ccccc1 (stereo not given)
inactive: ACHN > 100 µM | SNB-78 > 100 µM | OVCAR-3 > 100 µM | U-251 86.1 µM | SK-MEL-5 > 100 µM | DLD-1 > 100 µM | SF-295 > 100 µM | M14 > 100 µM | NCI-H23 78.3 µM | KM12 > 100 µM | SW-620 > 100 µM | NCI-H460 > 100 µM | UO-31 99.8 µM | DMS-114 97.7 µM | OVCAR-4 > 100 µM | K562 > 100 µM | MOLT-4 > 100 µM | XF498 14.2 µM | TK-10 > 100 µM | SK-MEL-2 > 100 µM | NCI-H522 > 100 µM | EKVX > 100 µM | SNB-19 > 100 µM | CAKI-1 > 100 µM | A498 > 100 µM | 786-0 > 100 µM | OVCAR-5 > 100 µM | HOP-62 > 100 µM | SK-MEL-28 > 100 µM | SF-268 > 100 µM | DMS-273 > 100 µM | CCRF-CEM > 100 µM | HT-29 > 100 µM | RXF 393 > 100 µM | LXFL 529 > 100 µM | A549 > 100 µM | SNB-75 > 100 µM | SN12C > 100 µM | UACC-257 > 100 µM | HCT-116 > 100 µM | UACC-62 > 100 µM | SF-539 > 100 µM | OVCAR-8 > 100 µM | NCI-H226 27.3 µM | HL-60 41 µM | M19-MEL > 100 µM | SK-OV-3 > 100 µM | SR > 100 µM
> 100 µM: HCT-15

CC(C)C1CC2C(=O)N(c3ccccc3)C(=O)C2c2[nH]c3ccccc3c21 (stereo not given)
14.6 µM: HCT-15
inactive: ACHN 4.4 µM | SNB-78 22.4 µM | OVCAR-3 5.78 µM | U-251 12 µM | SK-MEL-5 73.8 µM | DLD-1 42.5 µM | SF-295 6.9 µM | M14 38.5 µM | NCI-H23 19.5 µM | KM12 9.91 µM | SW-620 8.26 µM | NCI-H460 4.63 µM | UO-31 17.3 µM | DMS-114 20.4 µM | OVCAR-4 2.32 µM | K562 4.85 µM | MOLT-4 11.2 µM | XF498 23.3 µM | TK-10 23.1 µM | SK-MEL-2 35.2 µM | EKVX 61.7 µM | CAKI-1 5.68 µM | A498 32 µM | 786-0 21.1 µM | IGROV-1 34.5 µM | OVCAR-5 > 100 µM | HOP-62 29.2 µM | Malme-3M 25.8 µM | RPMI-8226 19.8 µM | SK-MEL-28 23.4 µM | DMS-273 9.84 µM | CCRF-CEM 14 µM | HT-29 22.9 µM | RXF 393 21.3 µM | HCC 2998 > 100 µM | A549 14.4 µM | SNB-75 6.98 µM | UACC-257 34.6 µM | HCT-116 4.13 µM | UACC-62 24.6 µM | KM-20L2 73.6 µM | SF-539 13.8 µM | OVCAR-8 7.24 µM | NCI-H226 16.2 µM | HL-60 7.45 µM | M19-MEL 56.4 µM | SK-OV-3 20.5 µM

COc1ccc2c(c1)CC[C@@H]1C2CC[C@]2(C)C(=O)N(CCN3CCCC3)C(=O)CC12 (stereo not given in full)
inactive: ACHN 59.3 µM | SNB-78 31.4 µM | OVCAR-3 27.5 µM | U-251 43.9 µM | SF-295 19.1 µM | M14 15.8 µM | NCI-H23 49.7 µM | KM12 29.4 µM | NCI-H460 36.6 µM | UO-31 17.9 µM | DMS-114 26.5 µM | OVCAR-4 84.3 µM | K562 20.4 µM | MOLT-4 17.3 µM | SK-MEL-2 17.8 µM | COLO 205 17.7 µM | NCI-H522 23.1 µM | SNB-19 > 100 µM | A498 27.9 µM | 786-0 18.3 µM | IGROV-1 44.7 µM | HOP-92 17.8 µM | OVCAR-5 26.1 µM | HOP-62 28.3 µM | Malme-3M 17 µM | RPMI-8226 15.3 µM | SK-MEL-28 19.5 µM | SF-268 35.1 µM | HT-29 17.4 µM | RXF 393 34 µM | LXFL 529 26.4 µM | SNB-75 15.1 µM | UACC-257 18.5 µM | UACC-62 18.2 µM | KM-20L2 21.4 µM | HL-60 18.7 µM | M19-MEL 18.2 µM | SK-OV-3 66.7 µM | SR 31 µM

COC(=O)C(CCC(=O)CCl)N1C(=O)c2ccccc2C1=O (stereo not given)
4.25 µM: HCT-15
inactive: ACHN 13.3 µM | MCF7 4.57 µM | OVCAR-3 11.6 µM | U-251 14.4 µM | SK-MEL-5 4.95 µM | SF-295 17.7 µM | M14 5.27 µM | MDA-MB-231 12.6 µM | NCI-H23 9.89 µM | KM12 20.2 µM | SW-620 3.62 µM | NCI-H460 12.2 µM | UO-31 14.4 µM | OVCAR-4 14.8 µM | MDA-N 7.43 µM | K562 2.38 µM | MOLT-4 2.38 µM | TK-10 14.5 µM | SK-MEL-2 6.9 µM | COLO 205 15.6 µM | NCI-H522 1.73 µM | EKVX 19.9 µM | PC-3 12.9 µM | SNB-19 18.7 µM | CAKI-1 15.2 µM | A498 19.5 µM | DU-145 16.9 µM | 786-0 4.05 µM | IGROV-1 12.4 µM | NCI/ADR-RES 9.42 µM | HOP-92 5.78 µM | OVCAR-5 15.9 µM | HOP-62 16.1 µM | T47D 6.25 µM | Malme-3M 4.57 µM | MDA-MB-435 10.1 µM | RPMI-8226 3.37 µM | SK-MEL-28 10.7 µM | SF-268 9.42 µM | CCRF-CEM 1.67 µM | HT-29 9.64 µM | RXF 393 2.39 µM | HCC 2998 8.18 µM | A549 17.7 µM | LOX IMVI 1.57 µM | SNB-75 8.13 µM | SN12C 10.5 µM | UACC-257 7.18 µM | HCT-116 5.07 µM | UACC-62 10.8 µM | SF-539 12.2 µM | OVCAR-8 12.3 µM | BT-549 8.97 µM | Hs-578T 12.6 µM | NCI-H226 18.7 µM | HL-60 2.53 µM | SK-OV-3 16 µM | SR 3.39 µM

From ChEMBL document CHEMBL1201862, “PubChem BioAssay data set” (2004)
